logP and solubility data for 63 molecules are collected here from the OPERA property sets (Mansouri et al. 2018).

Each structure is given as a SMILES string. Values after ≈ are worked out from the molar mass of the structure shown.

In turn, `CCCCCCCCCC` came in with a log partition coefficient (logP) of 5.01.
Regarding `Clc1cc2c(cc1Cl)-c1cc(Cl)c(Cl)cc1-2`, the logP came out at 6.14.
Still for that read-out and setting: in the case of `N#CCCOc1cccc2ccccc12` it was 2.8.
Regarding `N=C(N)NN=Cc1cccc([N+](=O)[O-])c1`, the logP came out at 0.01.
`CC1(C)[C@H](/C=C(\Cl)C(F)(F)F)[C@@H]1C(=O)O[C@H](C#N)c1cccc(Oc2ccccc2)c1` returned a solubility of 0.0111 µM (≈ 0.005 µg/mL).
As to `N#Cc1cc(-c2ccncc2)cnc1NCCO`, the logP is 1.17.
Still for that read-out and setting: then `CCCCCCNC(=O)CCC(NS(=O)(=O)c1ccc(C)cc1)C(=O)O` (centres undefined), with 0.84; and `BrCBr`, with 1.7; and `COc1sc(C(=O)Nc2nn[nH]n2)c(OC(C)C)c1Br`, with 1.35.
`CCCC(=O)OCN1C(=O)NC(c2ccccc2)(c2ccccc2)C1=O`: the logP amounted to 3.34.
On the same count and under the same terms, in the case of `O=C(NCCN1CCC(n2c(=O)[nH]c3cc(Cl)ccc32)CC1)c1ccc(F)cc1` it was 4.63; in that of `CC(C)NC1=NC(=O)C(=Cc2ccc([N+](=O)[O-])o2)S1`, 1.29; in that of `CC(=O)OC1C=CC2C3Cc4ccc(O)c5c4C2(CCN3C)C1O5` (centres undefined), 1.55.
Same read-out and setting: then `c1ccc2c(c1)cc1ccc3cccc4ccc2c1c34`, with 6.13; and `CCCCCCC`, with 4.66; and `N#CCCCC#N`, with -0.72.
On to `CCOC(=O)C1CNC(=O)CC1C(=O)OCC` (centres undefined), for which the logP was -0.03.
`Cc1c(Cl)c(Cl)c(C(C)C)c(Cl)c1Cl` had a logP of 6.8.
`CC(C)(C)[C@@H](O)[C@@H](Cc1ccc(Cl)cc1)n1cncn1` (single isomer, unassigned) returned a log partition coefficient (logP) of 3.2.
The molecule `C[C@H](CS)C(=O)N1CCC[C@H]1C(=O)O` had a lipophilicity (logP) of 0.34.
As for `COc1ccc2c(c1)OCC1(O)c3cc4c(cc3OC21)OCO4` (centres undefined), the log partition coefficient (logP) stood at 2.58.
On the same count and under the same terms, then `O=C1NCCC2CNC(=O)C12` (centres undefined), with -1.95.
The molecule `CCn1cc(C(=O)O)c(=O)c2cc(F)c(N3CCNC(C)C3)cc21` (centres undefined) showed a lipophilicity (logP) of 0.34.
Same read-out and setting: in the case of `CCOC(=O)CCC(=O)OCC` it was 1.2; in that of `NCCc1nc(-c2ccccc2)cs1`, 2.22; in that of `CCC(=O)OCN1C(=O)NC(c2ccccc2)(c2ccccc2)C1=O`, 2.8.
On the same count and under the same terms, in the case of `Cc1nnc(-c2ccccc2)c(=O)n1N` it was 0.83.
Still for that read-out and setting: then `Clc1cccc(-c2c(Cl)ccc(Cl)c2Cl)c1Cl`, with 6.04.
Regarding `Clc1ccc2cc(Cl)c(Cl)cc2c1`, the lipophilicity (logP) was found to be 5.12 and the solubility stood at 0.0721 µM (≈ 0.0167 µg/mL).
Consider `CC(CCC(=O)O)C1CCC2C3C(O)C(O)C4CC(O)CCC4(C)C3CCC12C` (centres undefined), for which the logP was found to be 2.8.
On the same count and under the same terms, then `O=C(O)CCCCn1nnc2ccccc21`, with 0.48; and `Clc1ccc2c(Cl)ccnc2c1`, with 3.57.
On to `CCNC(=O)Nc1ncc([N+](=O)[O-])s1`, for which the solubility was found to be 1390 µM (≈ 300 µg/mL).
In turn, `O=C(OCc1ccccc1)c1cccnc1` returned a logP of 2.4.
Still for that read-out and setting: then `CN(C)C(N)=S`, with -0.43.
`[O-][N+](=Cc1ccccc1)c1ccccc1`: the logP came out at 1.88.
The same measure, in the same setting: in the case of `N#Cc1c(Cl)c(Cl)c(Cl)c(C#N)c1Cl` it was 3.05.
Same read-out and setting: in the case of `CCCCOC(=O)c1ccccc1O` it was 4.63; in that of `COc1cc(C(=O)NCc2ccc(OCCN(C)C)cc2)cc(OC)c1OC`, 2.29.
The same measure, in the same setting: then `CC(C)c1ccc(NC(=O)CN(CC(=O)O)CC(=O)O)cc1Br`, with -0.08; and `CC(C)(C)OCCO`, with 0.39; and `NC(=O)CC[C@H](NS(=O)(=O)c1ccccc1)C(=O)O`, with 0.33.
`CC(C)n1ccc(=O)c(O)c1`: the logP was -0.02.
Same read-out and setting: in the case of `COc1c(Cl)cc(Cl)cc1Cl` it was 4.11; in that of `CN(C)C(=O)n1nc(C(C)(C)C)nc1SCC(=O)O`, 1.62.
Same read-out and setting: then `OCc1ccc(F)cc1`, with 1.36; and `CN(C)c1ccc(N=c2snc3sc(S(N)(=O)=O)nn23)cc1`, with 2.32.
Same read-out and setting: in the case of `Oc1ccc(C2CNCCc3c2cc(O)c(O)c3Cl)cc1` (centres undefined) it was 2.39; in that of `CC1(C)C=C(C(=O)NCCCN2C(=O)c3ccccc3C2=O)C(C)(C)N1`, 1.58; in that of `Cc1c(CNc2ccc(Cl)cc2)cnc2nc(N)nc(N)c12`, 2.03.
In turn, `COC(=O)C(C)=CC1C(C(=O)OC)C1(C)C` (centres undefined) yielded a lipophilicity (logP) of 2.67.
On the same count and under the same terms, in the case of `CNC[C@H](O)c1ccc(O)c(O)c1` it was -1.2.
Same read-out and setting: then `CCCC(C)CCC(C)=O` (centres undefined), with 2.92; and `O=C1CC(c2ccccc2)Oc2ccccc21` (centres undefined), with 3.14.
Same read-out and setting: then `O=c1cc(CO)occ1O`, with -0.64.
Regarding `Clc1cccc2c1Oc1c(Cl)c(Cl)c(Cl)c(Cl)c1O2`, the logP stood at 6.5.
In turn, `CC(C)(C)C(O)C(Oc1ccc(Cl)cc1)n1cncn1` (centres undefined) came in with a logP of 2.9.
Same read-out and setting: then `N#CCCN(N)c1nc2ccccc2o1`, with 0.9; and `C/C=C(/C)C(=O)O[C@H]1CCN2CC=C(COC(=O)[C@](O)([C@H](C)OC)C(C)(C)O)[C@H]12`, with 1.28; and `C[C@H](CSC(=O)c1ccccc1)C(=O)N1C[C@@H](Sc2ccccc2)C[C@H]1C(=O)O`, with 4.4.
Same read-out and setting: in the case of `Cc1cc(Cl)c(C(C)C)cc1Cl` it was 5.6.
Still for that read-out and setting: then `ClC1(Cl)CC1(c1ccccc1)c1ccccc1`, with 4.88; and `CCc1cc2c(s1)N(C)C(=O)CN=C2c1ccccc1Cl`, with 3.18.

The logP is a log measure of how a compound divides between an organic and an aqueous phase. A higher logP goes with higher lipophilicity. For orientation: solubility means the dissolved amount per volume that the medium holds.
